{"source": "patent US20150101077A1", "about": "“INDUCIBLE PROMOTER SEQUENCES FOR REGULATED EXPRESSION AND METHODS OF USE” (PIONEER HI-BRED INTERNATIONAL INC, priority 2012, published 2015)", "key": {"1.7 kb ZmCAS1 promoter [1]": {"system": "1.7 kb ZmCAS1 promoter", "assay": "X-Gluc GUS staining of maize callus transformed with PHP16975", "assay_type": "cell-based", "settings": "room temperature, 18 hours, FIG. 4A", "excerpt": "Agrobacterium-mediated transformation of immature embryos was used to generate integrated copies of PHP16974 (SEQ ID NO:11; ZmCAS1HindIII Pro:GUS/35SPAT) comprising the 1.0 kb ZmCAS1 promoter (SEQ ID NO:9), PHP16975 (SEQ ID NO:12, ZmCAS1BamPro:GUS/35SPAT) comprising the 1.7 kb ZmCAS1 promoter (SEQ ID NO:10) and PHP16972 (SEQ ID NO:13, ZmCAS1 HindIII Pro:MS45/35SPAT) comprising the 1.0 kb ZmCAS1 promoter or PHP16973 (SEQ ID NO:14, ZmCASIBamPro:MS45/35SPAT:) comprising the 1.7 kb ZmCAS1 promoter.\nTo determine whether the 1.7 kb or the 1.0 kb ZmCAS1 promoter from maize could direct induced expression of the GUS reporter, three bialophos-resistant callus events were placed onto maintenance media and maintenance media containing increasing amounts of the safener CBSU-2 for at room temperature for 18 hours, removed and stained with X-Gluc to detect GUS activity."}, "1.7 kb ZmCAS1 promoter [2]": {"system": "1.7 kb ZmCAS1 promoter", "assay": "Western analysis of MS45 protein in ms45/ms45 maize plants transformed with PHP16973", "assay_type": "in vivo", "settings": "PHP16973 plants watered with 30 mg of CBSU, collected 2 days later"}, "1.7 kb ZmCAS1 promoter [3]": {"system": "1.7 kb ZmCAS1 promoter", "assay": "GUS expression in leaf punches of maize plants transformed with PHP16975", "assay_type": "in vivo", "settings": "2 days after watering with 30 mg of 2-CBSU, 3 PHP16975 plants, FIG. 5", "procedure": "Plants were also regenerated from callus events containing PHP16975 and grown in the greenhouse to approximately the 5 leaf stage. At this stage of development, leaf punches from plants regenerated from the 3 bialophos-resistant events shown in FIG. 5 were collected pre- (C) and post-watering (S) with 30 mg of 2-CBSU to examine GUS expression in leaf in response to application of the safener."}, "1.0 kb ZmCAS1 promoter [4]": {"system": "1.0 kb ZmCAS1 promoter", "assay": "Northern analysis of MS45 mRNA in ms45/ms45 maize callus transformed with PHP16972", "assay_type": "cell-based", "settings": "100 mg/liter CBSU, room temperature, 18 hours, FIG. 6", "excerpt": "T-DNA vectors PHP16972 (SEQ ID NO:13, ZmCAS1HindIII Pro: MS45/35S:PAT) and PHP16973 (SEQ ID NO: 14, ZmCAS1 BamPro:MS45/35S:PAT) were used to transform maize callus which was generated to contain a segregating population of MS45/ms45 heterozygous and ms45/ms45 homozygous mutant plants. In order to detect MS45 RNA or protein expression under the control of the 1.0 or 1.7 kb ZmCAS promoter in maize anthers, plants containing a naturally occurring mutation in the maize MS45 gene which results in loss of MS45 RNA and protein were used for these studies. Pollen from MS45/ms45 plants were used to fertilize male-sterile ms45/ms45 plants for the purpose of generating embryos which would be ms45/ms45 as described in Cigan et al 2001. […] Five random bialophos-resistant callus events containing integrated copies of PHP16972 were placed onto maintenance media (FIG. 5, (−)) and maintenance media containing 100 mg/liter safener CBSU-2 (FIG. 5 (+)) at room temperature for 18 hours, removed and PolyA+RNA prepared and used for RNA analysis as described (Cigan et al. 2001. Sex. Plant Reprod. 14, 135-142) using the ZmMS45 and ZmActin probes for hybridization analysis. […] A very low signal was observed when callus was grown in the absence of CBSU. Actin was used as a control probe to show nearly equivalent RNA levels were present in all samples. […]"}, "ZmCAS1 transcript": {"system": "ZmCAS1 transcript", "assay": "Northern blot of maize RNA with ZmCAS1 probe after CBSU treatment", "assay_type": "in vivo", "settings": "for ZmCAS1 hybridization signal in anther mRNA: FIG. 2", "procedure": "Wild type maize plants were grown to the meiosis stage of microspore development. Plants were watered with 30 mg 2-CBSU and allowed to develop to the quartet and early vacuolate stage of microspore development. PolyA+ anther RNA was isolated from wild type control and CBSU treated plants and stored. A cDNA library was constructed from mRNAs isolated from CBSU-treated plants, arrayed onto nylon filters and stored. A cDNA subtraction library was generated using the Clontech PCR-Select cDNA Subtraction Kit (#K1804-1) following the manufacturer's instructions to enrich for CBSU-specific transcripts. Using this approach anther PolyA+mRNA from wild-type plants was used to enrich for transcripts found in the anther PolyA+mRNA from CBSU treated plants. This cDNA subtraction library was subcloned into pSPORT (BRL) vector, colonies plated, picked and sequenced. Among the vector inserts sequenced, two DNA sequences were present at a high proportion, at more than 10% of the inserts sequenced, and referred to as ZmCAS1c-1 (477 bp; SEQ ID NO: 1) and ZmCAS1c-2 (438 bp; SEQ ID NO: 2) (QBSU-Anther-Subtract 1). Both ZmCAS1c-1 and ZmCAS1c-2 had sequence identity to mannitol dehydrogenases from plants. ZmCASlc-1 and ZmCAS1c-2 DNA fragments were used as hybridization probes to screen the filter arrayed cDNA CBSU-anther library described above to isolate full-length cDNA containing hybridizing clones. Both ZmCAS1c-1 and ZmCAS1c-2 identified identical cDNA clones. […]\n(§1) To determine whether the ZmCAS1 cDNA was 1) induced in maize anthers by CBSU-treatment and 2) reduced or absent in tapetum and microspore-ablated maize anthers from CBSU-treated 5126:DAM plants, a 477 bp ZmCAS1c-1 DNA fragment (SEQ ID NO:1), as well as DNA fragments from ZmMS45, Zm5126, ZmActin, and ZmUbiquitin (Cigan et al. 2001. […] MS45 and 5126 transcripts were easily detected in anther RNAs from male-fertile plants but absent in anther RNAs from male-sterile plants (FIG. 2) further supporting the observation that these RNAs are localized to the maize tapetum (Cigan et al. 2001. Sex. Plant Reprod. 14, 135-142)."}, "IN2-2 transcript": {"system": "IN2-2 transcript", "assay": "Northern blot of maize anther RNA with IN2-2 probe after CBSU treatment", "assay_type": "in vivo", "settings": "CBSU-treated male-fertile and male-sterile plants, FIG. 2", "procedure": "Wild type maize plants were grown to the meiosis stage of microspore development. Plants were watered with 30 mg 2-CBSU and allowed to develop to the quartet and early vacuolate stage of microspore development. PolyA+ anther RNA was isolated from wild type control and CBSU treated plants and stored. A cDNA library was constructed from mRNAs isolated from CBSU-treated plants, arrayed onto nylon filters and stored. A cDNA subtraction library was generated using the Clontech PCR-Select cDNA Subtraction Kit (#K1804-1) following the manufacturer's instructions to enrich for CBSU-specific transcripts. Using this approach anther PolyA+mRNA from wild-type plants was used to enrich for transcripts found in the anther PolyA+mRNA from CBSU treated plants. […]\nas §1"}, "1.0 kb ZmCAS1 promoter [5]": {"system": "1.0 kb ZmCAS1 promoter", "assay": "X-Gluc GUS staining of maize callus transformed with PHP16974", "assay_type": "cell-based", "settings": "seven PHP16974 callus events, 100 mg/liter CBSU, room temperature, FIG. 4B"}, "1.0 kb ZmCAS1 promoter [6]": {"system": "1.0 kb ZmCAS1 promoter", "assay": "X-Gluc GUS staining of rice callus transformed with PHP16974", "assay_type": "cell-based, Oryza sativa cv.Kitaake", "settings": "PHP16974 callus events, 100 mg/liter CBSU, 24 hours, FIG. 9", "excerpt": "To determine whether the ZmCAS1 promoter could conditionally regulate expression in response to safener treatment or heat treatment in plant species other than maize, Agrobacterium-mediated transformation was used to generate integrated copies of PHP16974 (ZmCAS1HindIII Pro:GUS) comprising the truncated 1.0 kb ZmCAS1 promoter for studies in rice. Scutellum from 10-14 day old germinating seeds (Oryza sativa cv.Kitaake) was used for rice transformation experiment (Toki. 1997, PI Mol. Biol Reporter 15:16-21). Bialophos-resistant callus events containing PHP16974 were selected and screened for their ability to respond to safener application. Four independent bialophos-resistant events were grown on maintenance media or maintenance media containing 100 mg/liter CBSU for 24 hours, removed and stained with X-Gluc. […] PHP16974 bialophos-resistant events were regenerated into plants. Leaf tissue was collected from these plants and used for DNA hybridization analyses to identify single-copy PHP16974 insertions. These plants were allowed to set selfed seed and were used for subsequent studies to monitor GUS expression under the transcriptional control of the ZmCAS1 promoter. Sixteen seed were selected from 2 single-copy PHP16974 events were sterilized, grown on hormone-free media at 28° C. or 37° C. for 48 hours and allowed to germinate. […]"}}, "data": [{"smiles": "NC(=O)NS(=O)(=O)c1ccccc1Cl", "note": "[CBSU, N-(aminocarbonyl)-2-chlorobenzenesulfonamide]", "values": [{"measurement": "GUS expression in callus", "setting": "1.7 kb ZmCAS1 promoter [1]; 10 mg/l CBSU", "value": "low levels of GUS expression"}, {"measurement": "GUS expression in callus", "setting": "1.7 kb ZmCAS1 promoter [1]; 100 mg/l CBSU", "value": "strong GUS expression"}, {"measurement": "MS45 protein in leaf extracts", "setting": "1.7 kb ZmCAS1 promoter [2]; FIG. 7", "value": "increased steady-state levels of the MS45 protein"}, {"measurement": "MS45 protein in anther extracts", "setting": "1.7 kb ZmCAS1 promoter [2]; FIG. 8", "value": "Increased MS45 protein"}, {"measurement": "GUS expression in leaf punches", "setting": "1.7 kb ZmCAS1 promoter [3]", "value": "strong GUS expression"}, {"measurement": "MS45 mRNA hybridization signal in callus", "setting": "1.0 kb ZmCAS1 promoter [4]", "value": "strong induction of a hybridization signal"}, {"measurement": "ZmCAS1 hybridization in mRNAs from callus, leaf and anther", "setting": "ZmCAS1 transcript; maize callus or leaf treated with CBSU, FIG. 3", "value": "strong hybridization"}, {"measurement": "ZmCAS1 hybridization signal in anther mRNA", "setting": "ZmCAS1 transcript; male-fertile CBSU-treated plants (+, F)", "value": "strong hybridization signals"}, {"measurement": "ZmCAS1 hybridization signal in anther mRNA", "setting": "ZmCAS1 transcript; male-sterile 5126:DAM CBSU-treated plants (+, S)", "value": "reduced ZmCAS1 signal"}, {"measurement": "IN2-2 hybridization signal in anther mRNA", "setting": "IN2-2 transcript", "value": "strong hybridization signals"}, {"measurement": "GUS expression in callus", "setting": "1.0 kb ZmCAS1 promoter [5]", "value": "inducible GUS expression"}, {"measurement": "GUS expression in rice callus", "setting": "1.0 kb ZmCAS1 promoter [6]", "value": "strong GUS expression"}]}]}
